Test results from US20240074473A1, “METHOD FOR INDUCING HYPERTROPHIC MUSCLE FIBERS FOR INDUSTRIAL MEAT PRODUCTION” (Yeda Research and Development Co. Ltd., priority 2021, published 2024).

Key:
Format in all cases: cell-based
[1] = test system: primary chicken myoblasts; assay: Fusion index of primary chicken myoblasts (MyHC immunostaining); settings: for Fusion: 48 hours post treatment
Experimental: Chicken primary derived myoblasts were used as a model to evaluate the efficiency of SCH772984 as the ERKi, compared to conventional differentiation medium (DM) for the purpose of producing muscle (meat) in tissue culture conditions. Chicken myoblasts were isolated from chicken embryos and expanded in proliferation medium. When sufficient cell numbers were acquired, cells were seeded on tissue culture plates and allowed to adhere for 24 hours. Then medium was changed to either PM supplemented with ERKi or DM. At 24-hours post treatment, the cells that received ERKi were replenished with fresh PM (without the addition of more ERKi), and DM treated cells were replenished with fresh DM. Media was replaced daily over a period of 72 hours.
Evaluation of muscle fiber formation was achieved by fixing the cells and staining for expression of Myosin Heavy Chain (FIG. 9A). […] Yet, treatment with conventional DM only began to form fibers beginning at 72-hours post treatment. A fusion index was quantified at 72 hours post treatment (FIG. 9B), in which the percentage of total nuclei present in a myotube (MyHC positive cell with 2 or more nuclei).
Primary chicken myoblast isolation and treatment: chicken myoblasts were isolated from broiler chicken embryos at day 18 from breast and leg muscles by using Trypsin B. Following tissue dissociation, the cell suspension was grown for 3-4 days on 10% Matrigel coated plates. At the first passage, the cells were lifted and pre-plated twice for 30 minutes to enrich for myoblasts and reduce the number of fibroblasts. Then cells were seeded at 8,000/well of optical-96 well plates in proliferation medium. 24 hours after plating, media was aspirated and replaced with the indicated treatment conditions in proliferation media or differentiation media (as indicated). After 24 hours with treatment, the media was aspirated and all wells were replenished with fresh proliferation media or differentiation media without any treatment. This was repeated daily. Cells were fixed at 48 hours after treatment. Compounds were purchased from Cayman Chemicals.
Immunofluorescent staining: Cells were fixed with ice cold 4% PFA in PBS for 10 minutes, permeabilized with 0.5% Triton X-100 in PBS for 6 minutes, and blocked in PBS with 0.025% tween, 10% normal horse serum and 10% normal goat serum for 1 hour at room temperature. Primary antibody incubation was done in blocking buffer overnight at 4 degrees, with the following antibodies: Myosin Heavy Chain (MyHC, MF20, DSHB hybridoma supernatant 1:10, alpha-actinin (SIGMA A7811). Cells were washed 3 times in PBS with 0.025% tween and then incubated with appropriate secondary antibodies in PBS 1 hour. Nuclei were labeled with DAPI (SIGMA D9542, 5 ug/ml). All fusion indexes and imaging analysis were performed on at least 1000 per technical repeat.

ovine myoblasts = assay: Live imaging of fusion in ovine myoblasts; settings: sheep derived myoblasts, 1 μM
Experimental: Bovine myoblasts were seeded in equal number in 96-well plates and the following day treated either with PM, PM supplemented with 0.5 uM SCH 772984 (ERKi) or differentiation media (DM). Media was replenished daily either with fresh PM or DM (ERKi was not added again). At 72 hours post treatment, cells were fixed and stained for myosin heavy chain, and several fields per condition were imaged. Nuclei per fiber was quantified per field to result in a fusion index. For ovine myoblasts—equal number of cells were seeded in an 8 well chamber slide for 24 hours. The following day cells were treated with either with 1 uM SCH 772984 (ERKi) or differentiation media (DM), supplemented with 100 nM of Sir-Actin reagent, then incubated for 4 hours and then the slide was transferred to a heated and CO2 chambered microscope unit. Several fields of view were selected and live imaging was performed by capturing images of each field every 7 minutes. The series of images for each treatment over a period of 31 hours was stacked into a movie file using ImageJ.

primary mouse myoblasts = assay: Proliferation markers KI-67 and pH3 staining in primary mouse myoblasts; settings: 1 μM ERKi, 24 hours
Experimental: Immunofluorescence staining. First passage primary myoblasts isolated from various strains (indicated in figure legends) were plated in 96-well plates or chamber slides and treated as previously described. The cells were fixed with ice cold 4% PFA in PBS for 10 minutes, permeabilized with 0.5% Triton X-100 in PBS for 6 minutes, and blocked in PBS with 0.025% tween, 10% normal horse serum and 10% normal goat serum for 1 hour at room temperature. Primary antibody incubation was done in blocking buffer overnight at 4 degrees, with the following antibodies: Myosin Heavy Chain (MyHC, MF20, DSHB hybridoma supernatant 1:10, or MY-32 ABCAM ab51263 1:400), Myogenin (MYOG sc-13137 SCBT 1:200), pHistone 3 (PH3, ab47297 ABCAM 1:1000), Ki-67 (Cell Marque #275R), RYR (ab2868 ABCAM 1:100), and pCaMKII (SIGMA SAB4504356 1:100). Cells were washed 3 times in PBS with 0.025% tween and then incubated with appropriate secondary antibodies in PBS 1 hour. Where indicated, nuclei were either labeled with DAPI (SIGMA D9542, 5 ug/ml) or Hoechst 33342 (Thermo scientific #62249, 1:2000). Fixed cells at 24 hours post treatment with indicated inhibitors were imaged using the Nikon Eclipse Ti2 microscope (further described in microscopy section). All analysis was performed on at least 1000 nuclei. […]

O=C(Nc1ccc2[nH]nc(-c3ccncc3)c2c1)[C@@H]1CCN(CC(=O)N2CCN(c3ccc(-c4ncccn4)cc3)CC2)C1 [SCH772984]
Muscle fibers begin to form earlier than with DM ([1]; chicken myoblasts): 48 h | Increase in fusion index compared to DM ([1]; chicken myoblasts, 72 hours post treatment): ~4 fold | Fusion index (percentage of total nuclei in MyHC positive cell with 2 or more nuclei) ([1]; chicken myoblasts, 72 hours post treatment, ERKi in PM vs DM): 62% | Time at which myotubes/fibers begin to form ([1]; chicken myoblasts, post treatment): ≤ 24 h | Fusion ([1]; primary chicken myoblasts, Differentiation media, 1 uM): 46% | Fusion ([1]; primary chicken myoblasts, Differentiation media, 10 uM): 61% | Fusion ([1]; primary chicken myoblasts, Proliferation media, 1 uM): 59% | Fusion ([1]; primary chicken myoblasts, Proliferation media, 10 uM): 69% | Fusion index ([1]; primary chicken myoblasts, proliferation medium, ERKi treatment alone (SCH772984 1 uM), 48 hours): 62% | Fusion and myotube formation compared to DM (ovine myoblasts): significantly more fusion and myotube formation | Cell cycle (KI-67 and phosphorylated Histone 3 staining) (primary mouse myoblasts): undergo cell-cycle arrest
